Active and inactive are the calls of the source. The rule behind the calls is not given here.

We go through 5 molecules from ChEMBL document CHEMBL4011585, “Identification of dibenzyl imidazolidine and triazole acetamide derivatives through virtual screening targeting amyloid beta aggregation and neurotoxicity in PC12 cells” (Eur J Med Chem, 2017).

Data set [1] has as its system PC-12. The experiment in a line: Cytotoxicity against rat PC12 cells assessed as reduction in cell viability up to 100 uM after 48 hrs by MTT assay. Type of data set: cell-based. To be noted: pc-12, 48 h. A general note: Formazan colour is commonly taken as a measure of viable cells.
The subject of data set [2] is PC-12. In words: Neuroprotective activity against amyloid beta (1 to 42)-induced cell death in rat PC12 cells assessed as cell viability at 100 uM measured after 48 hrs by MTS assay relative to control. It is filed as functional.
For data set [3], the target named is Amyloid-beta precursor protein (Homo sapiens) (UniProt P05067). In words: Inhibition of recombinant human amyloid beta (1 to 42) aggregation at 100 uM measured every 10 mins for 48 hrs by thioflavin T fluorescence assay.
The target is the same in data set [4]. In words: Induction of morphological changes in recombinant human amyloid beta (1 to 42) fibrils assessed as thinner fibril at 100 uM measured after 48 hrs by transmission electron microscopic method.
The target is the same in data set [5]. In words: Induction of morphological changes in recombinant human amyloid beta (1 to 42) assessed as less dense fibril at 100 uM measured after 48 hrs by transmission electron microscopic method.
The target is the same in data set [6]. The experiment in a line: Induction of morphological changes in recombinant human amyloid beta (1 to 42) assessed as loosely attached fibrils at 100 uM measured after 48 hrs by transmission electron microscopic method.
The target is the same in data set [7]. The experiment in a line: Induction of morphological changes in recombinant human amyloid beta (1 to 42) assessed as smoother fibrils at 100 uM measured after 48 hrs by transmission electron microscopic method.
For data set [8] the target is unchanged. The experiment in a line: Induction of morphological changes in recombinant human amyloid beta (1 to 42) fibrils assessed as shorter fibril at 100 uM measured after 48 hrs by transmission electron microscopic method.
For data set [9] the target is unchanged. In words: Induction of morphological changes in recombinant human amyloid beta (1 to 42) assessed as appearance of uneven fibrils at 100 uM measured after 48 hrs by transmission electron microscopic method.
The test system of data set [10] is PC-12. The experiment in a line: Cytotoxicity against rat PC12 cells assessed as reduction in cell viability at 100 uM after 48 hrs by MTT assay relative to control. It is filed as cell-based. To be noted: pc-12, 48 h.
The target in data set [11] is Amyloid-beta precursor protein (Homo sapiens) (UniProt P05067). In words: Induction of morphological changes in recombinant human amyloid beta (1 to 42) assessed as appearance of punctate at 100 uM measured after 48 hrs by transmission electron microscopic method.
For data set [12] the target is unchanged. The experiment in a line: Induction of morphological changes in recombinant human amyloid beta (1 to 42) assessed as appearance of small mesh-like aggregates at 100 uM measured after 48 hrs by transmission electron microscopic method.
Data set [13] relates to PC-12. The experiment in a line: Cytotoxicity against rat PC12 cells assessed as reduction in cell viability at 10 uM after 48 hrs by MTT assay relative to control. Type of data set: cell-based. Conditions: pc-12, 48 h.
The test system of data set [14] is PC-12. In words: Cytotoxicity against rat PC12 cells assessed as reduction in cell viability after 48 hrs by MTT assay. It is filed as cell-based. To be noted: pc-12, 48 h.

Sequence of Amyloid-beta precursor protein (Homo sapiens) (P05067 whole entry): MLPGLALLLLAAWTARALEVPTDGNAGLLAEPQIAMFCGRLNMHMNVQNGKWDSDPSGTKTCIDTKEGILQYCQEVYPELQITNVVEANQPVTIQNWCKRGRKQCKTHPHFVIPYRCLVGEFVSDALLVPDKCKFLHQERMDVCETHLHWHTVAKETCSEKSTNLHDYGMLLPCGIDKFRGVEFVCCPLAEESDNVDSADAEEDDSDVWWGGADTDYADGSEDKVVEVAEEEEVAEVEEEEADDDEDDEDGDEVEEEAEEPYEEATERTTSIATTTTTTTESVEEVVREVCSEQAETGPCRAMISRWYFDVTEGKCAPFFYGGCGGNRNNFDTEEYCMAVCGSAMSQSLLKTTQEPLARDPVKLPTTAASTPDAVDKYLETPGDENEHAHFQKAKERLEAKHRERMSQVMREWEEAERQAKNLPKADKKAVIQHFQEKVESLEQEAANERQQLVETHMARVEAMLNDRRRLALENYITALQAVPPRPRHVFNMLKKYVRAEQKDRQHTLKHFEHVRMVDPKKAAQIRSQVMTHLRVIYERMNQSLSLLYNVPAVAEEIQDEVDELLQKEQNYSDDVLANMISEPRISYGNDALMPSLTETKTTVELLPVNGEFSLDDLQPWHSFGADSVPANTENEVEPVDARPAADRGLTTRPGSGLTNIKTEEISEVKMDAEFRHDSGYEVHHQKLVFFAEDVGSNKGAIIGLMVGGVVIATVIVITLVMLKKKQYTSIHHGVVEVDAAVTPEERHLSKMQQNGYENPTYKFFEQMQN

With `c1ccc(COc2cccc(C3N(Cc4ccccc4)CCN3Cc3ccccc3)c2)cc1`, the Activity result in the data set on PC-12 [1] is on record as “Non-Toxic”. In addition, the outcome (in the data set with PC-12 [2]; in [4]; in [5]; in data set [6]; in data set [7]; in data set [8]) was Active. For the same molecule, in data set [3], the inhibition result was “inactive”.
`Cn1c(SCC(=O)Nc2ccccc2)nnc1-c1ccc(N)cc1`: the outcome in data set [9], in data set [4], in data set [11], in data set [12] and in data set [5] was Active. In addition, the Activity in the data set with PC-12 [10] was 20 to 25%. The viability at 100 µM with PC-12 [2] (PC-12, 48 h, read-out: Activity) fell in the range of 73 to 78%. The inhibition result in [3] is “Active”.
`Cc1cccc(CNC(=O)[C@@H](C)C2CCN(C(=O)c3ccc4oc(-c5ccccc5)nc4c3)CC2)c1`: the figures for the Activity in the data set with PC-12 [10], with PC-12 [13] and in the data set with PC-12 [14] were 87%, 35% and “Dose-dependent effect”, respectively. The inhibition entry in data set [3] is “inactive”. Also, the result in data set [5] was inactive.
Take `COc1cc(C2N(Cc3ccccc3)CCN2Cc2ccccc2)ccc1OCc1ccccc1`: the outcome (in [9]; in the data set with PC-12 [2]; in data set [4]; in data set [5]; in data set [6]; in [8]) was Active. Besides, in the data set with PC-12 [1], the Activity entry is reported as “Non-Toxic”. For the same molecule, in data set [3], the inhibition entry was “Active”.
Take `Cc1ccc(NC(=O)CSc2nnc(-c3ccc(N)cc3)n2C)cc1`: the result in data set [9], in data set [4], in data set [11], in [12] and in [5] was Active. Besides, in the data set with PC-12 [10], the Activity is 60%. In addition, the inhibition entry in data set [3] is “Active”.
